From PMC2361651 (British Journal of Cancer, 2005)

Experiments:
[1] = Phase I safety and tolerability, twice weekly intravenous infusion
[2] = tested on: treatment refractory solid tumours; assay: Tumour response (WHO response criteria); assay type: in vivo, human
Source text: The study protocol was approved by the Research Ethics Committee of the Royal […] Trust. Written informed consent was obtained from all participants. All patients had treatment refractory solid tumours and were required to have at least one tumour deposit suitable for DCE-MRI evaluation. A suitable lesion had to be ⩾2 cm in size and in an anatomical position not subject to significant respiratory excursion. […] Exclusion criteria included patients with a known history of allergy to radiologic contrast agents or to Cremophor®; a Karnovsky performance status of <60%; a history of myocardial infarction, severe or unstable angina within 6 months of the study; diabetes mellitus with clinical evidence of severe peripheral vascular disease or ulceration; a medical condition or device implant that would interfere with or prevent MRI scans; or a serious concomitant medical condition that could interfere with the participation in the study or interpretation of study results.

[3] = tested on: tumour vascular permeability; assay: DCE-MRI of tumour vascular permeability; assay type: in vivo, human; details: for increase in leakage space (Ve): final scan (median 35 days), soft-tissue sarcoma patient
Method: All patients were asked to have a baseline DCE-MRI examination within the 7 days prior to receiving the study compound under study conditions as described above. Follow-up scans were performed on day 1 and then after 4 weeks of therapy. After the first three patients' examination, the protocol was amended to day 1, 2 weeks, 6 weeks and 6 weekly thereafter if the patient remained on study. All examinations were performed on a 1.5 T MRI system (Vision, Siemens Medical Systems, Erlangen, Germany) approximately 4 h after the commencement of the treatment infusion.
The image collection protocol comprised routine orthogonal T1- and T2-weighted images taken through the previously identified target lesion, to allow localisation and bi-dimensional tumour measurement. The dynamic imaging used a five-slice saturation recovery turbo fast low-angle shot sequence (SRTF) taken through the centre of the target lesion. Proton density-weighted images were acquired, followed by a series of T1-weighted images employing the same gain and image scaling factors. The sequential T1-weighted images were acquired every 9 s for 6.3 min (42 time points).
Gadopentetate dimeglumine (Magnevist Schering Health Care Limited, Burgess Hill, Sussex, UK) was injected intravenously using a mechanical power injector, through a peripherally placed cannula. This contrast was administered as a bolus after the third baseline data point was acquired at a dose of 0.1 mmol kg^−1 body weight. The use of the mechanical power injector allowed the contrast to be delivered within 10 s. The contrast injection was followed by a 20 ml flush of normal saline.
Using the resultant scanned images, two trained observers (AP, CH) blinded to the clinical outcome of the patients evaluated the patterns of enhancement within a designated region of interest. Contrast medium kinetic parameters were then derived for each pixel using MR Imaging Workbench software®. Quantitative and semiquantitative statistical analysis was then performed on these parameters using StatsDirect software (Research Solutions, Cambridge, UK).

[4] = 27 patients treated, two not evaluable
[5] = mid-treatment (2 weeks), one patient, squamous cell carcinoma nasopharynx, 110 mg m^−2

In the case of `Cc1cc(C)c(/C=C2\C(=O)Nc3ccccc32)[nH]1` [SU5416, Z-3-[(2,4-dimethylpyrrol-5-yl)methylidenyl]-2-indolinone], the “pain or burning discomfort in tumour-related sites shortly after infusion, patients” value ([1]; dose expansion cohort) was “three”, the “dysphonia, patients” value ([1]; therapy for 6 weeks or more, reversible over several months) was “Two” and the “Venous thrombotic events, patients” value ([1]; thrombosis of the inferior vena cava and a pulmonary embolism, differing dose levels) was “two”. For the same molecule, the “recommended dose for future study” value ([1]; twice weekly intravenous infusion) was 145 mg m^−2, the maximum-tolerated dose ([1]; twice weekly intravenous infusion, 48 to 190 mg m^−2) was “not identified” and the “patients with progressive disease as best response” value [2, 4] was 14 patients. For the same molecule, the “patients with stable disease at 6 weeks” value [2, 4] was 12 patients, the “patients remaining on therapy for more than 12 weeks” value ([2]; haemangioendothelioma, ovarian and adrenocortical carcinoma) was “three” and the “increase in leakage space (Ve)” value ([3]; 48 mg m^−2) was 36.5%. For the same molecule, the “increase in leakage space (Ve)” value ([3]; final expansion cohort) was 34.5%, the “change in Ktrans” value ([3]; increase, day 1, one patient with metastatic melanoma (target lesion brain)) was 91% and the “change in Ktrans” value [3, 5] was −51.9%. The “change in Ve” value [3, 5] was −48.6%.
